Data published in PubChem BioAssay (NCI).
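Where inhibition never reached the appropriate level, the endpoint shown equals the highest concentration tested. Otherwise, values were interpolated linearly from a five-concentration, 48-hour dose response in 96-well plates. At the GI50, growth is halved. Definition used: TGI = concentration required for complete inhibition of growth.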

Key:
Assay in all cases: NCI anticancer screen, dose series, 48 h
[1] = system: NCI/ADR-RES ovarian
[2] = system: SK-MEL-28 melanoma
[3] = system: UO-31 renal
[4] = system: ACHN renal
[5] = system: OVCAR-5 ovarian
[6] = system: SNB-75 CNS
[7] = system: SN12C renal
[8] = system: SK-MEL-5 melanoma
[9] = system: RPMI-8226 leukemia
[10] = system: HS 578T breast
[11] = system: SF-539 CNS
[12] = system: RXF 393 renal
[13] = system: UACC-62 melanoma
[14] = system: SF-268 CNS
[15] = system: MALME-3M melanoma
[16] = system: SF-295 CNS
[17] = system: HCT-116 colon
[18] = system: HOP-62 NSCLC
[19] = system: TK-10 renal
[20] = system: OVCAR-3 ovarian
[21] = system: T-47D breast
[22] = system: HOP-92 NSCLC
[23] = system: MCF7 breast
[24] = system: COLO 205 colon
[25] = system: A549 NSCLC
[26] = system: 786-0 renal
[27] = system: PC-3 prostate
[28] = system: LOX IMVI melanoma
[29] = system: MDA-MB-435
[30] = system: HCC-2998 colon
[31] = system: IGROV1 ovarian
[32] = system: NCI-H460 lung
[33] = system: HT29 colon
[34] = system: MDA-MB-231 breast
[35] = system: HCT-15 colon
[36] = system: U251 CNS
[37] = system: HL-60(TB) leukemia
[38] = system: MOLT-4 leukemia
[39] = system: BT-549 breast
[40] = system: A498 renal
[41] = system: SR leukemia
[42] = system: MDA-MB-468 breast
[43] = system: DU-145 prostate
[44] = system: NCI-H23 lung
[45] = system: SNB-19 CNS
[46] = system: UACC-257 melanoma
[47] = system: NCI-H522 lung
[48] = system: KM12 colon
[49] = system: M14 melanoma
[50] = system: K-562 leukemia
[51] = system: OVCAR-8 ovarian
[52] = system: OVCAR-4 ovarian
[53] = system: CCRF-CEM leukemia
[54] = system: CAKI-1 renal
[55] = system: NCI-H226 lung
[56] = system: SW-620 colon
[57] = system: SK-OV-3 ovarian
[58] = system: EKVX NSCLC

Structure (SMILES): Cc1ccc(/C=C/c2n(Cc3ccc4ccccc4c3)c3ccccc3[n+]2Cc2ccc3ccccc3c2)cc1
- GI50 [1]: 1.9 µM
- TGI [1]: 4.56 µM
- GI50 [2]: 0.726 µM
- TGI [2]: 2.01 µM
- GI50 [3]: 1.44 µM
- TGI [3]: 2.77 µM
- GI50 [4]: 0.782 µM
- TGI [4]: 2.03 µM
- GI50 [5]: 1.1 µM
- TGI [5]: 2.3 µM
- GI50 [6]: 0.729 µM
- TGI [6]: 2.15 µM
- GI50 [7]: 1.45 µM
- TGI [7]: 2.79 µM
- GI50 [8]: 0.905 µM
- TGI [8]: 2.11 µM
- GI50 [9]: 0.331 µM
- TGI [9]: 2.3 µM
- GI50 [10]: 0.382 µM
- TGI [10]: 1.74 µM
- GI50 [11]: 0.475 µM
- TGI [11]: 1.71 µM
- GI50 [12]: 0.325 µM
- TGI [12]: 1.39 µM
- GI50 [13]: 1.27 µM
- TGI [13]: 2.56 µM
- GI50 [14]: 1.5 µM
- TGI [14]: 3.88 µM
- GI50 [15]: 0.465 µM
- TGI [15]: 1.74 µM
- GI50 [16]: 0.399 µM
- TGI [16]: 1.66 µM

Structure (SMILES): O=C(c1ccc(Cl)cc1)c1ccc(OCCCN2CCN(c3ccncc3)CC2)cc1
- GI50 [17]: 2.17 µM
- TGI [17]: 11.1 µM
- GI50 [18]: 5.07 µM
- TGI [18]: 18.3 µM
- GI50 [2]: 1.99 µM
- TGI [2]: 3.82 µM
- GI50 [19]: 12.3 µM
- TGI [19]: 25.6 µM
- GI50 [3]: 2.36 µM
- TGI [3]: 10.4 µM
- GI50 [20]: 3.9 µM
- TGI [20]: 17.3 µM
- GI50 [21]: 3.22 µM
- TGI [21]: 18.3 µM
- GI50 [22]: 1.54 µM
- TGI [22]: 11.2 µM
- GI50 [4]: 8.94 µM
- TGI [4]: 21.1 µM
- GI50 [5]: 10.5 µM
- TGI [5]: 22.9 µM
- GI50 [23]: 1.89 µM
- TGI [23]: 5.16 µM
- GI50 [6]: 3.17 µM
- TGI [6]: 18.6 µM
- GI50 [24]: 1.7 µM
- TGI [24]: 3.51 µM
- GI50 [25]: 9.41 µM
- TGI [25]: 23.7 µM
- GI50 [26]: 1.69 µM
- TGI [26]: 3.27 µM
- GI50 [7]: 10.9 µM
- TGI [7]: 23.2 µM
- GI50 [27]: 3.4 µM
- TGI [27]: 21.4 µM
- GI50 [28]: 1.69 µM
- TGI [28]: 3.25 µM
- GI50 [29]: 3.09 µM
- TGI [29]: 11.5 µM
- GI50 [30]: 3.01 µM
- TGI [30]: 8.47 µM
- GI50 [31]: 6.59 µM
- TGI [31]: 21 µM
- GI50 [32]: 4.81 µM
- TGI [32]: 18 µM
- GI50 [33]: 1.81 µM
- TGI [33]: 6.41 µM
- GI50 [34]: 4.32 µM
- TGI [34]: 17.3 µM
- GI50 [35]: 1.48 µM
- TGI [35]: 4.46 µM
- GI50 [36]: 3.98 µM
- TGI [36]: 15.2 µM
- GI50 [8]: 1.73 µM
- TGI [8]: 4.18 µM
- GI50 [37]: 1.46 µM
- TGI [37]: 3.59 µM
- GI50 [38]: 2.88 µM
- TGI [38]: 9.07 µM
- GI50 [9]: 2.38 µM
- TGI [9]: 10 µM
- GI50 [39]: 2.86 µM
- TGI [39]: 9.3 µM
- GI50 [10]: 6.05 µM
- TGI [10]: 27.7 µM
- GI50 [11]: 1.77 µM
- TGI [11]: 4.58 µM
- GI50 [12]: 0.831 µM
- TGI [12]: 6.4 µM
- GI50 [40]: 16 µM
- TGI [40]: 30.2 µM
- GI50 [41]: 1.7 µM
- TGI [41]: 5.65 µM
- GI50 [42]: 1.39 µM
- TGI [42]: 4.38 µM
- GI50 [43]: 10.1 µM
- TGI [43]: 23.6 µM
- GI50 [44]: 2.89 µM
- TGI [44]: 11.7 µM
- GI50 [45]: 9.11 µM
- TGI [45]: 21.8 µM
- GI50 [46]: 4.04 µM
- TGI [46]: 15.7 µM
- GI50 [13]: 1.8 µM
- TGI [13]: 3.63 µM
- GI50 [47]: 10.3 µM
- TGI [47]: 23.4 µM
- GI50 [48]: 4.57 µM
- TGI [48]: 17 µM
- GI50 [49]: 1.77 µM
- TGI [49]: 3.51 µM
- GI50 [50]: 1.08 µM
- TGI [50]: 4.8 µM
- GI50 [51]: 9.52 µM
- TGI [51]: 46.1 µM
- GI50 [52]: 5.07 µM
- TGI [52]: 23.9 µM
- GI50 [14]: 11.6 µM
- TGI [14]: 27.9 µM
- GI50 [53]: 2.7 µM
- TGI [53]: 12.2 µM
- GI50 [15]: 1.79 µM
- TGI [15]: 3.41 µM
- GI50 [54]: 4.95 µM
- TGI [54]: 19.4 µM
- GI50 [55]: 4.22 µM
- TGI [55]: 19.8 µM
- GI50 [56]: 2.57 µM
- GI50 [57]: 5.1 µM
- TGI [57]: 18.4 µM
- GI50 [16]: 2.04 µM
- TGI [16]: 4.82 µM
- GI50 [58]: 3.62 µM
- TGI [58]: 15.5 µM
